Results taken from PubChem BioAssay (NCI).
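GI50 is the concentration that inhibits growth by half. TGI is the concentration that stops growth completely.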

Legend:
Assay in all cases: NCI anticancer screen, dose series, 384-well format
BT-549 breast = system: BT-549 breast
SNB-19 CNS = system: SNB-19 CNS
SN12C renal = system: SN12C renal
T-47D breast = system: T-47D breast
LOX IMVI melanoma = system: LOX IMVI melanoma
NCI-H460 NSCLC = system: NCI-H460 NSCLC
SW-620 colon = system: SW-620 colon
SK-OV-3 ovarian = system: SK-OV-3 ovarian
OVCAR-5 ovarian = system: OVCAR-5 ovarian
HOP-62 NSCLC = system: HOP-62 NSCLC
ACHN renal = system: ACHN renal
SF-295 CNS = system: SF-295 CNS
SF-268 CNS = system: SF-268 CNS
MDA-MB-231 breast = system: MDA-MB-231 breast
UACC-62 melanoma = system: UACC-62 melanoma
U251 glioblastoma = system: U251 glioblastoma
UO-31 renal = system: UO-31 renal
MALME-3M melanoma = system: MALME-3M melanoma
A549 NSCLC = system: A549 NSCLC
HT29 colon = system: HT29 colon
MCF7 breast = system: MCF7 breast
SF-539 CNS = system: SF-539 CNS
SK-MEL-5 melanoma = system: SK-MEL-5 melanoma
UACC-257 melanoma = system: UACC-257 melanoma
OVCAR-8 ovarian = system: OVCAR-8 ovarian
HOP-92 NSCLC = system: HOP-92 NSCLC
KM12 colon = system: KM12 colon
HCC-2998 colon = system: HCC-2998 colon
K-562 leukemia = system: K-562 leukemia
SK-MEL-28 melanoma = system: SK-MEL-28 melanoma
RPMI-8226 leukemia = system: RPMI-8226 leukemia
IGROV1 ovarian = system: IGROV1 ovarian
CAKI-1 renal = system: CAKI-1 renal
M14 melanoma = system: M14 melanoma
NCI-H226 lung = system: NCI-H226 lung
OVCAR-4 ovarian = system: OVCAR-4 ovarian
NCI-H23 lung = system: NCI-H23 lung
DU-145 prostate = system: DU-145 prostate
MDA-MB-435 melanoma = system: MDA-MB-435 melanoma
HCT-15 colon = system: HCT-15 colon
NCI/ADR-RES ovarian = system: NCI/ADR-RES ovarian
OVCAR-3 ovarian = system: OVCAR-3 ovarian
A498 renal = system: A498 renal
HCT-116 colon = system: HCT-116 colon
786-0 renal = system: 786-0 renal
SK-MEL-2 melanoma = system: SK-MEL-2 melanoma
RXF 393 renal = system: RXF 393 renal
PC-3 prostate = system: PC-3 prostate
TK-10 renal = system: TK-10 renal
COLO 205 colon = system: COLO 205 colon

What does the source list for `CC[C@@H]1c2c(C#N)ncn2-c2cnc(Nc3ccc(C(=O)NC4CCN(C5CCN(CC6CC6)CC5)CC4)cc3OC)nc2N1C1CCCC1`?
GI50 (BT-549 breast): 54.2 nM; TGI (BT-549 breast): 228 nM; GI50 (SNB-19 CNS): 38.7 nM; TGI (SNB-19 CNS): 269 nM; GI50 (SN12C renal): 103 nM; TGI (SN12C renal): 356 nM; GI50 (T-47D breast): 117 nM; TGI (T-47D breast): 241 nM; GI50 (LOX IMVI melanoma): 28.3 nM; TGI (LOX IMVI melanoma): 59.6 nM; GI50 (NCI-H460 NSCLC): 16.4 nM; TGI (NCI-H460 NSCLC): 35.1 nM; TGI (SW-620 colon): 44.8 nM; GI50 (SK-OV-3 ovarian): 26.1 nM; TGI (SK-OV-3 ovarian): 87.5 nM; GI50 (OVCAR-5 ovarian): 53 nM; TGI (OVCAR-5 ovarian): 204 nM; GI50 (HOP-62 NSCLC): 28.6 nM; TGI (HOP-62 NSCLC): 76.6 nM; GI50 (ACHN renal): 204 nM; TGI (ACHN renal): 767 nM; GI50 (SF-295 CNS): 75.7 nM; TGI (SF-295 CNS): 1480 nM; GI50 (SF-268 CNS): 25.1 nM; TGI (SF-268 CNS): 197 nM; GI50 (MDA-MB-231 breast): 44.5 nM; TGI (MDA-MB-231 breast): 158 nM; GI50 (UACC-62 melanoma): 32.8 nM; TGI (UACC-62 melanoma): 95.5 nM; GI50 (U251 glioblastoma): 23.3 nM; TGI (U251 glioblastoma): 152 nM; GI50 (UO-31 renal): 181 nM; TGI (UO-31 renal): 322 nM; GI50 (MALME-3M melanoma): 134 nM; TGI (MALME-3M melanoma): 263 nM; GI50 (A549 NSCLC): 41.7 nM; TGI (A549 NSCLC): 171 nM; GI50 (HT29 colon): 22 nM; TGI (HT29 colon): 48.8 nM; GI50 (MCF7 breast): 34.5 nM; TGI (MCF7 breast): 169 nM; GI50 (SF-539 CNS): 36.5 nM; TGI (SF-539 CNS): 106 nM; GI50 (SK-MEL-5 melanoma): 17.2 nM; TGI (SK-MEL-5 melanoma): 65.6 nM; GI50 (UACC-257 melanoma): 78.5 nM; TGI (UACC-257 melanoma): 201 nM; GI50 (OVCAR-8 ovarian): 21.7 nM; TGI (OVCAR-8 ovarian): 41.8 nM; GI50 (HOP-92 NSCLC): 43.3 nM; TGI (HOP-92 NSCLC): 404 nM; GI50 (KM12 colon): 23.9 nM; TGI (KM12 colon): 74.9 nM; GI50 (HCC-2998 colon): 20.9 nM; TGI (HCC-2998 colon): 48.7 nM; GI50 (K-562 leukemia): 21.1 nM; TGI (K-562 leukemia): 43.8 nM; GI50 (SK-MEL-28 melanoma): 60.1 nM; TGI (SK-MEL-28 melanoma): 182 nM; GI50 (RPMI-8226 leukemia): 13.9 nM; TGI (RPMI-8226 leukemia): 31.5 nM; GI50 (IGROV1 ovarian): 44.9 nM; TGI (IGROV1 ovarian): 1660 nM; GI50 (CAKI-1 renal): 137 nM; TGI (CAKI-1 renal): 280 nM; GI50 (M14 melanoma): 30 nM; TGI (M14 melanoma): 81.9 nM; GI50 (NCI-H226 lung): 175 nM; TGI (NCI-H226 lung): 1310 nM; GI50 (OVCAR-4 ovarian): 125 nM; TGI (OVCAR-4 ovarian): 273 nM; GI50 (NCI-H23 lung): 27.5 nM; TGI (NCI-H23 lung): 61.4 nM; GI50 (DU-145 prostate): 23.9 nM; TGI (DU-145 prostate): 53.8 nM; GI50 (MDA-MB-435 melanoma): 15.7 nM; TGI (MDA-MB-435 melanoma): 38.6 nM; GI50 (HCT-15 colon): 137 nM; TGI (HCT-15 colon): 269 nM; GI50 (NCI/ADR-RES ovarian): 1110 nM; TGI (NCI/ADR-RES ovarian): 2310 nM; GI50 (OVCAR-3 ovarian): 15.7 nM; TGI (OVCAR-3 ovarian): 48.4 nM; GI50 (A498 renal): 123 nM; TGI (A498 renal): 254 nM; GI50 (HCT-116 colon): 21.4 nM; TGI (HCT-116 colon): 107 nM; GI50 ([…]-0 renal): 116 nM; TGI (786-0 renal): 241 nM; GI50 (SK-MEL-2 melanoma): 13.8 nM; TGI (SK-MEL-2 melanoma): 33.9 nM; GI50 (RXF 393 renal): 19.7 nM; TGI (RXF 393 renal): 43.3 nM; GI50 (PC-3 prostate): 53.8 nM; TGI (PC-3 prostate): 302 nM; GI50 (TK-10 renal): 317 nM; TGI (TK-10 renal): 1740 nM; GI50 (COLO 205 colon): 19.8 nM; TGI (COLO 205 colon): 110 nM
